This passage reports Activity, inhibition and ECmax results from ChEMBL document CHEMBL4742393, “Compounds for treatment of hypoproliferative disorders” (2019).

The structures appear in SMILES notation. Calls of active or inactive are those of the source. The rule behind the calls is not given here.

The test system of experiment [1] is Erythroid progenitor cell. The experiment is described as follows: Rescue of proliferation of CD34+ erythroid progenitor cells isolated from DBA patient with […] mutation at 200 nM measured at day 14 of culture. Format: functional, tissue-based. The note with it: Homo sapiens, time 14.0 day.
Experiment [2] has as its system CD34-positive (myeloid/lymphoid) cell. The experiment is described as follows: Rescue of proliferation of CD34+ erythroid progenitor cells isolated from DBA patient with RPS26 mutation at 200 nM measured at day 14 of culture. The class given is functional, tissue-based. Conditions: Homo sapiens, time 14.0 day.
The subject of experiment [3] is Mus musculus. Description: Induction of rescue of anemia in RPS19-deficient mouse model for DBA assessed as improvement in erythrocytes production at 10 mg/kg, po dosed every 12 hrs for 5 times and measured 48 hrs after last dose. The note with it: time 108.0 hrs. Format: functional, organism-based.
Experiment [4] relates to Erythroid progenitor cell. The experiment is described as follows: Increase in erythroid maturation of erythroid progenitor cells isolated from DBA patient assessed as increase in CD71 and CD235a positive cells level measured at day 8 of culture by flow cytometry. Format: functional, tissue-based. Conditions: Homo sapiens. In general terms: Flow cytometry measures light scatter and fluorescence of single cells or particles in a stream.

The subject of experiment [5] is CD34-positive (myeloid/lymphoid) cell. Description: Rescue of proliferation of CD34+ erythroid progenitor cells isolated from DBA patient with RPS19 mutation at 200 nM measured at day 14 of culture. The note with it: Homo sapiens, time 14.0 day. Format: functional, tissue-based.
Experiment [6] in a line: Rescue of cell survival defect in RPS19-deficient erythroid progenitor cells isolated from mouse model of DBA assessed as c-kit+ progenitor cell levels at 5 uM by 7-AAD dye based FACS analysis (reference value: 38%). The class given is functional.
A short description of experiment [7]: Rescue of cell survival defect in RPS19-deficient erythroid progenitor cells isolated from mouse model of DBA assessed as live cell levels at 5 uM by 7-AAD dye based FACS analysis (reference value: 31%). The class given is functional.
Experiment [8] is filed under the species Homo sapiens. Description: Inhibition of GCN2 kinase domain 2 […] mutant (unknown origin) assessed as residual ligand binding level at 10000 nM relative to control.
The target in experiment [9] is Ribosomal protein S6 kinase alpha-6 (Homo sapiens) (UniProt Q9UK32). Description: Inhibition of RSK4 c-terminal kinase domain (unknown origin) assessed as residual ligand binding level at 10000 nM relative to control.
Chain of Ribosomal protein S6 kinase alpha-6 (Homo sapiens) (Q9UK32 whole entry, the tested form may be a part): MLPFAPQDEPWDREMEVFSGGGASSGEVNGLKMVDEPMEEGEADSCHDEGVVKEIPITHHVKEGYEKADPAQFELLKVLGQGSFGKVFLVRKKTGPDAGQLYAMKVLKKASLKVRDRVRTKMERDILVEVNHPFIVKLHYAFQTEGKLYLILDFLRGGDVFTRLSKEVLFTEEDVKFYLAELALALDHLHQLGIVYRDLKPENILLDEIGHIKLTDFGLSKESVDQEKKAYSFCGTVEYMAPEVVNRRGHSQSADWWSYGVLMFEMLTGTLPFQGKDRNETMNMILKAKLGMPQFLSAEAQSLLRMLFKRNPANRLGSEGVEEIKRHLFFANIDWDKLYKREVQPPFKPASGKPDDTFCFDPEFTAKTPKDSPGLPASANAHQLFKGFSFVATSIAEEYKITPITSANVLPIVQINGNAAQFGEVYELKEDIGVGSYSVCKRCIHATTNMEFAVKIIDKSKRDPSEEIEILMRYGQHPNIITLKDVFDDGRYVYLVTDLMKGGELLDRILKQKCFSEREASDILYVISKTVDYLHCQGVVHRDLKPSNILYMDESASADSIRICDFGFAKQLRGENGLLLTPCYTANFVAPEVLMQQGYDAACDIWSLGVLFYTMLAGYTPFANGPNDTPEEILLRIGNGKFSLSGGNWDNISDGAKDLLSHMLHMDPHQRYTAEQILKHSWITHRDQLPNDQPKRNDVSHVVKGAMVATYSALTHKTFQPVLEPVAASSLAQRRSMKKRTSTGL
In experiment [10] the target is TGF-beta receptor type-1 (Homo sapiens) (UniProt P36897). The experiment is described as follows: Inhibition of TGFBR1 (unknown origin) assessed as residual ligand binding level at 10000 nM relative to control.
Chain of TGF-beta receptor type-1 (Homo sapiens) (P36897 whole entry): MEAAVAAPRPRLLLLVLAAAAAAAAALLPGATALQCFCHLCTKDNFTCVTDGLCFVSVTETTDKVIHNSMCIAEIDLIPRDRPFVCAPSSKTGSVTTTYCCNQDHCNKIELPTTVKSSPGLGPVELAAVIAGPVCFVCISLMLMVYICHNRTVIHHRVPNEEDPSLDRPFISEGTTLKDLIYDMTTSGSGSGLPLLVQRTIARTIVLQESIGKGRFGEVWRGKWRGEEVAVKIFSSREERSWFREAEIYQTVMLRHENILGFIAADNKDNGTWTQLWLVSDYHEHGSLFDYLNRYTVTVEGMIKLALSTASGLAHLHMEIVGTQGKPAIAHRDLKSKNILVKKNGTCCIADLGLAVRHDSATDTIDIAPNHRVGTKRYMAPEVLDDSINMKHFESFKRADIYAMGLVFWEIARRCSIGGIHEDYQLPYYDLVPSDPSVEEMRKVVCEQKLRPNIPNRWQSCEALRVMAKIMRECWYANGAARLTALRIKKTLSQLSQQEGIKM
Experiment [11] concerns the target Cyclin-dependent kinase 19 (Homo sapiens) (UniProt Q9BWU1). Description: Inhibition of CDK19(CDK11) (unknown origin) assessed as residual ligand binding level at 10000 nM relative to control.
The target in experiment [12] is Casein kinase I isoform alpha (Homo sapiens) (UniProt P48729). Description: Inhibition of CSNK1A1 (unknown origin) assessed as residual ligand binding level at 10000 nM relative to control.
Chain of Casein kinase I isoform alpha (Homo sapiens) (P48729 2-337 limits assumed): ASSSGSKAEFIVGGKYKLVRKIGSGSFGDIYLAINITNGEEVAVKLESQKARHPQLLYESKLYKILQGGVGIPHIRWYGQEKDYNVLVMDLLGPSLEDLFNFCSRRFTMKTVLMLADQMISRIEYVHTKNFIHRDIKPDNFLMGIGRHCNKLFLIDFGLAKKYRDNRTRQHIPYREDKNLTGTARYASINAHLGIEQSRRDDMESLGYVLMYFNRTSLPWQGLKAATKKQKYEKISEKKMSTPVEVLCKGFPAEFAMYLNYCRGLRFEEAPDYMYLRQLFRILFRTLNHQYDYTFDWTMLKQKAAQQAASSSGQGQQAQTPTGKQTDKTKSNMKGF
In experiment [13] the target is Mitogen-activated protein kinase 14 (Homo sapiens) (UniProt Q16539). The experiment is described as follows: Inhibition of p38-alpha (unknown origin) assessed as residual ligand binding level at 10000 nM relative to control.
Chain of Mitogen-activated protein kinase 14 (Homo sapiens) (Q16539 whole entry): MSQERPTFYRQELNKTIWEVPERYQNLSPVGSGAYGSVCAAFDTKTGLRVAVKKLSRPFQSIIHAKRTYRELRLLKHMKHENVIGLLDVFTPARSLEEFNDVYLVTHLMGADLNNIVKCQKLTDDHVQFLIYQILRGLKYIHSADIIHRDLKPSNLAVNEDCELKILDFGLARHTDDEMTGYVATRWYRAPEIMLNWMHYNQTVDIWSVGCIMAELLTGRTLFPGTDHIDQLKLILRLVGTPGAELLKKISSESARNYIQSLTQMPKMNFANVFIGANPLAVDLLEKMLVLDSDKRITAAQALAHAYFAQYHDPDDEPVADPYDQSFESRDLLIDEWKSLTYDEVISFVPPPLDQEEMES
Experiment [14] addresses Dual specificity tyrosine-phosphorylation-regulated kinase 1A (Homo sapiens) (UniProt Q13627). The experiment is described as follows: Inhibition of DYRK1A (unknown origin) assessed as residual ligand binding level at 10000 nM relative to control.
Experiment [15] deals with Homeodomain-interacting protein kinase 1 (Homo sapiens) (UniProt Q86Z02). Description: Inhibition of HIPK1 (unknown origin) assessed as residual ligand binding level at 10000 nM relative to control.
Experiment [16] addresses Dual specificity tyrosine-phosphorylation-regulated kinase 2 (Homo sapiens) (UniProt Q92630). The experiment is described as follows: Inhibition of DYRK2 (unknown origin) assessed as residual ligand binding level at 10000 nM relative to control.
Experiment [17] deals with Casein kinase I isoform gamma-3 (Homo sapiens) (UniProt Q9Y6M4). The experiment is described as follows: Inhibition of CSNK1G3 (unknown origin) assessed as residual ligand binding level at 10000 nM relative to control.
For experiment [18], the target named is Death-associated protein kinase 1 (Homo sapiens) (UniProt P53355). Description: Inhibition of DAPK1 (unknown origin) assessed as residual ligand binding level at 10000 nM relative to control.
In experiment [19] the target is Serine/threonine-protein kinase pim-1 (Homo sapiens) (UniProt P11309). Description: Inhibition of PIM1 (unknown origin) assessed as residual ligand binding level at 10000 nM relative to control.
Chain of Serine/threonine-protein kinase pim-1 (Homo sapiens) (P11309 whole entry, looked up, canonical isoform): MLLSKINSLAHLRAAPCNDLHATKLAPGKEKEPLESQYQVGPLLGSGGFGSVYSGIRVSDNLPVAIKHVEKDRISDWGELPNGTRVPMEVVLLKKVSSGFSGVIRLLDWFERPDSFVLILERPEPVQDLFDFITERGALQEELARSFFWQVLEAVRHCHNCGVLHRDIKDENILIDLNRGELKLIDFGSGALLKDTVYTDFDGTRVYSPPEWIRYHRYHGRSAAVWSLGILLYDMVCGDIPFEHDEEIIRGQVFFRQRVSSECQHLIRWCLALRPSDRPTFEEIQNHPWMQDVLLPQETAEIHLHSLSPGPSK
For experiment [20], the target named is Casein kinase I isoform epsilon (Homo sapiens) (UniProt P49674). Description: Inhibition of CSNK1E (unknown origin) assessed as residual ligand binding level at 10000 nM relative to control.
Chain of Casein kinase I isoform epsilon (Homo sapiens) (P49674 whole entry, looked up, canonical isoform): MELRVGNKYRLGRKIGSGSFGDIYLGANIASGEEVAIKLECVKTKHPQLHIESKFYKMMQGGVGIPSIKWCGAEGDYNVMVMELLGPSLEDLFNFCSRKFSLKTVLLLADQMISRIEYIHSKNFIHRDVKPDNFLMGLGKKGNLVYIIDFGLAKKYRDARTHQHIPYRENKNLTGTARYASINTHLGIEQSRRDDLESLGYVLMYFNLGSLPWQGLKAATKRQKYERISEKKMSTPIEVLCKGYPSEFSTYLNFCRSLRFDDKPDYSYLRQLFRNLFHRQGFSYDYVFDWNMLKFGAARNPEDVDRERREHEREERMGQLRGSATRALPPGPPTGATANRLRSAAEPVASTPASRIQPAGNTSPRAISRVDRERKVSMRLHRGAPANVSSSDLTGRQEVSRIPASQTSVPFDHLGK
Experiment [21] concerns the target Dual specificity tyrosine-phosphorylation-regulated kinase 1B (Homo sapiens) (UniProt Q9Y463). Description: Inhibition of DYRK1B (unknown origin) assessed as residual ligand binding level at 10000 nM relative to control.
Experiment [22] concerns the target Casein kinase I isoform alpha-like (Homo sapiens) (UniProt Q8N752). The experiment is described as follows: Inhibition of CSNK1A1L (unknown origin) assessed as residual ligand binding level at 10000 nM relative to control.
The target in experiment [23] is Casein kinase I isoform gamma-1 (Homo sapiens) (UniProt Q9HCP0). Description: Inhibition of CSNK1G1 (unknown origin) assessed as residual ligand binding level at 10000 nM relative to control.
The target of experiment [24] is Casein kinase I isoform delta (Homo sapiens) (UniProt P48730). Description: Inhibition of CSNK1D (unknown origin) assessed as residual ligand binding level at 10000 nM relative to control.
Experiment [25] addresses Casein kinase I isoform gamma-2 (Homo sapiens) (UniProt P78368). Description: Inhibition of CSNK1G2 (unknown origin) assessed as residual ligand binding level at 10000 nM relative to control.
A short description of experiment [26]: Rescue of cell survival defect in RPS19-deficient erythroid progenitor cells isolated from mouse model of DBA assessed as live cell levels at 0.03 uM by 7-AAD dye based FACS analysis (reference value: 31%). Format: functional.
The nature of experiment [27]: Rescue of cell survival defect in RPS19-deficient erythroid progenitor cells isolated from mouse model of DBA assessed as c-kit+ progenitor cell levels at 0.03 uM by 7-AAD dye based FACS analysis (reference value: 38%). The class given is functional.
Experiment [28] concerns the target T1, CDK8/CDK19 (Mus musculus) (UniProt Q8R3L8+Q8BWD8). The experiment is described as follows: Inhibition of CDK8/CDK19 assessed as rescue of proliferation of RPS19-deficient mouse erythroid progenitor cells by cell-based phenotypic screening assay. Format: tissue-based.
Experiment [29] deals with T1, CDK8/CDK19 (Mus musculus). Description: Inhibition of CDK8/CDK19 assessed as rescue of proliferation of RPS19-deficient erythroid progenitor cells isolated from mouse model of DBA by cell-based phenotypic screening assay relative to control. Format: tissue-based.

T1 sequence (Q8BWD8 whole entry, looked up): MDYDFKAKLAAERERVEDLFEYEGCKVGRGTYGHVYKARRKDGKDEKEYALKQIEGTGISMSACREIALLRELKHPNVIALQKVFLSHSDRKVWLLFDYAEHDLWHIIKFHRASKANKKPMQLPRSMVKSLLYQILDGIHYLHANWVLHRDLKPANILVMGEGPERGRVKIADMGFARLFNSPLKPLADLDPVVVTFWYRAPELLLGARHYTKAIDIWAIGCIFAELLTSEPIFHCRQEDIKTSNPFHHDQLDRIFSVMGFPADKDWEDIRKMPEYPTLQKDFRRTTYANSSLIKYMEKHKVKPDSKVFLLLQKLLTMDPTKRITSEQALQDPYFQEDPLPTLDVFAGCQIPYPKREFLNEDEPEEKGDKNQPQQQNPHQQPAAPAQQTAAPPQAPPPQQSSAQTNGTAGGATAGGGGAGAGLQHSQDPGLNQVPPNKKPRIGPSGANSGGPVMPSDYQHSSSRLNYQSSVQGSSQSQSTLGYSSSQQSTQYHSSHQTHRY
T1 sequence (Q8R3L8 whole entry, looked up): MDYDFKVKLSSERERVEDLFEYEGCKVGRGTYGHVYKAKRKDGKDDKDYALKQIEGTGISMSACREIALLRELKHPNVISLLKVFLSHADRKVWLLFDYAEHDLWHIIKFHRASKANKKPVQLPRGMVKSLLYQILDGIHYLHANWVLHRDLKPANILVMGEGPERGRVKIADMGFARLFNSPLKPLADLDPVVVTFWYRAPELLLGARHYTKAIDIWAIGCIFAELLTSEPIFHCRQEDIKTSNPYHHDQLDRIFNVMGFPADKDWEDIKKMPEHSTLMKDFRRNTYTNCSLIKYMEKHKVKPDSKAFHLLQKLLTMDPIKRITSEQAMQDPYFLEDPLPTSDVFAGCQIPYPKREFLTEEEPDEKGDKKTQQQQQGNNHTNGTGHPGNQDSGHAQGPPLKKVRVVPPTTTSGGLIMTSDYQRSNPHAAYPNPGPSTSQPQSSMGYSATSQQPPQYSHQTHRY
Chain of Dual specificity tyrosine-phosphorylation-regulated kinase 1B (Homo sapiens) (Q9Y463 whole entry, looked up, canonical isoform): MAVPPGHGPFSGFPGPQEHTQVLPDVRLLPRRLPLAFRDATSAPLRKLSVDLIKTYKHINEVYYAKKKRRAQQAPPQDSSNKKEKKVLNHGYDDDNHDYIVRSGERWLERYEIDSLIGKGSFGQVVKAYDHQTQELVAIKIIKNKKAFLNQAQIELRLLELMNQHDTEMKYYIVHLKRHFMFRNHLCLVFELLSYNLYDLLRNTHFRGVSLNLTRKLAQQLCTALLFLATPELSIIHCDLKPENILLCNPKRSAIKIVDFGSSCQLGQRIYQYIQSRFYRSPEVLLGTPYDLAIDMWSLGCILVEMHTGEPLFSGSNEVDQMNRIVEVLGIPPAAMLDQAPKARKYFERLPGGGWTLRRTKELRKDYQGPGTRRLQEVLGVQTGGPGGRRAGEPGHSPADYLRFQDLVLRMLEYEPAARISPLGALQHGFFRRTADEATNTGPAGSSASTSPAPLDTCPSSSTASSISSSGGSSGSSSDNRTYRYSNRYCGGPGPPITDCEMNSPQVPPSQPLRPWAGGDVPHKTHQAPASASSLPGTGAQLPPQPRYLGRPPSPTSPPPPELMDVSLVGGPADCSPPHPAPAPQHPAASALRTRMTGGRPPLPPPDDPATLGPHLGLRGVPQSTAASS
Chain of Casein kinase I isoform gamma-2 (Homo sapiens) (P78368 whole entry, looked up, canonical isoform): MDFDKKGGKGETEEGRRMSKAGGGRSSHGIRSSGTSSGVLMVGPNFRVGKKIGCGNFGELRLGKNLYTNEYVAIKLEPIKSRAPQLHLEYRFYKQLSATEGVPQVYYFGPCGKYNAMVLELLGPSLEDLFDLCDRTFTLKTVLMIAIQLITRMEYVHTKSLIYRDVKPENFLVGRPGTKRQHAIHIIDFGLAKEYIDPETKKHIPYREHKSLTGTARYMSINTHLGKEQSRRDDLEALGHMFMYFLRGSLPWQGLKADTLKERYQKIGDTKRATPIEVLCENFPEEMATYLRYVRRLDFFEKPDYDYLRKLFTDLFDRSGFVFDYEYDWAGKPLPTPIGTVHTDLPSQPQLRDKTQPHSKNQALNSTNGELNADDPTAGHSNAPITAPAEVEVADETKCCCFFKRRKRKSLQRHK

In the case of `Cc1c(Br)c(Br)c2c3c1nc(N1CCNCC1)n3CCC2`, the result in experiment [1], in [2], in experiment [3], in experiment [4] and in experiment [5] was Active.

As to `Cn1cc(-c2ccc(-c3cncc(Cl)c3N3CCC4(CCNC4=O)CC3)cc2)cn1`, in [3], the result was Active.

For the compound `N#Cc1ccc2ncnc(NCCc3ccccc3)c2c1`, the Activity in [6] is 65%; in experiment [7] it was 77%. Besides, the result in experiment [3] was Active.

Take `COCc1cc(C)nc2sc(C(N)=O)c(N)c12`: the Activity amounted to 94% in experiment [8]; 72% in [9]; 95% in [10]; 0% in experiment [11]; 11% in [12]; 88% in experiment [13]. Further, the Activity is 50% in [14]; 61% in experiment [15]; 46% in [16]; 67% in [17]; 84% in experiment [18]; 87% in experiment [19]. Moreover, the Activity came to 14% in experiment [20]; 41% in [21]; 25% in experiment [22]; 84% in experiment [23]; 10% in [24]; 73% in experiment [25]. The outcome in [3] was Active.

Take `CN1CCN(C(=O)c2ccc3cc(CCNc4ncnc5ccc(C#N)cc45)ccc3c2)CC1`: the outcome in [1], in experiment [2], in experiment [3], in experiment [4] and in experiment [5] was Active.

As to `CN(C)C(=O)Cc1ccc(N2CCCN(c3ccnc4sc(C(N)=O)c(N)c34)CC2)cc1`, the result in experiment [1], in experiment [2], in [3], in experiment [4] and in experiment [5] was Active. Moreover, the Activity in [26] worked out at 70%; in experiment [27], 63%. Moreover, the inhibition entry in experiment [28] is “Dose-dependent effect”.

For the compound `Cn1ncc2cc(-c3cnc(N)c(Cl)c3N3CCC4(CCNC4=O)CC3)ccc21`, the ECmax entry in [29] is “inactive”. For the same compound, in [3], the result was Active.

Turning to `NC(=O)c1sc2nccc(N3CCCN(c4ccccc4)CC3)c2c1N`, in experiment [28], the inhibition result is “Dose-dependent effect”. Besides, the result in experiment [3] was Active.

On to `CN(C)c1ccnc2sc(C(N)=O)c(N)c12`, for which the inhibition entry in experiment [28] was “Dose-dependent effect”. In addition, the outcome in experiment [3] was Active.

Regarding `COc1ccc(-c2cc(C3CC3)nc3sc(C(N)=O)c(N)c23)cc1`, in experiment [3], the result was Active.

Consider `Cc1c(C(N)=O)sc2nc(C(F)(F)F)cc(N)c12`, for which the result in [3] was Active.

On to `CCc1nc2sc(C(N)=O)c(N)c2c2c1CCCC2`, for which the outcome in experiment [3] was Active.
